Test results: US9636418B2 (priority 2013, dated 2017)
Several values for one entry are separate records, joined by “and”; a condition that tells them apart may be missing. Equal values may be shown once.

Assays:
Experiment in all cases: cell-based
hNav1.4 [1] = biological target: T1, hNav1.4 (Homo sapiens, UniProt P35499); details: ratio of PX IC50 values
hNav1.4 [2] = biological target: T1, hNav1.4; details: ratio of IonWorks Quattro IC50 values
hNav1.7 = hNav1.7 (Homo sapiens, UniProt Q15858); type: cell-based; details: PatchXpress; * = at high concentrations compound would wash off slowly or not at all; read-out: PX hNav1.7 Tonic IC50
Chain of hNav1.7 (Q15858 whole entry): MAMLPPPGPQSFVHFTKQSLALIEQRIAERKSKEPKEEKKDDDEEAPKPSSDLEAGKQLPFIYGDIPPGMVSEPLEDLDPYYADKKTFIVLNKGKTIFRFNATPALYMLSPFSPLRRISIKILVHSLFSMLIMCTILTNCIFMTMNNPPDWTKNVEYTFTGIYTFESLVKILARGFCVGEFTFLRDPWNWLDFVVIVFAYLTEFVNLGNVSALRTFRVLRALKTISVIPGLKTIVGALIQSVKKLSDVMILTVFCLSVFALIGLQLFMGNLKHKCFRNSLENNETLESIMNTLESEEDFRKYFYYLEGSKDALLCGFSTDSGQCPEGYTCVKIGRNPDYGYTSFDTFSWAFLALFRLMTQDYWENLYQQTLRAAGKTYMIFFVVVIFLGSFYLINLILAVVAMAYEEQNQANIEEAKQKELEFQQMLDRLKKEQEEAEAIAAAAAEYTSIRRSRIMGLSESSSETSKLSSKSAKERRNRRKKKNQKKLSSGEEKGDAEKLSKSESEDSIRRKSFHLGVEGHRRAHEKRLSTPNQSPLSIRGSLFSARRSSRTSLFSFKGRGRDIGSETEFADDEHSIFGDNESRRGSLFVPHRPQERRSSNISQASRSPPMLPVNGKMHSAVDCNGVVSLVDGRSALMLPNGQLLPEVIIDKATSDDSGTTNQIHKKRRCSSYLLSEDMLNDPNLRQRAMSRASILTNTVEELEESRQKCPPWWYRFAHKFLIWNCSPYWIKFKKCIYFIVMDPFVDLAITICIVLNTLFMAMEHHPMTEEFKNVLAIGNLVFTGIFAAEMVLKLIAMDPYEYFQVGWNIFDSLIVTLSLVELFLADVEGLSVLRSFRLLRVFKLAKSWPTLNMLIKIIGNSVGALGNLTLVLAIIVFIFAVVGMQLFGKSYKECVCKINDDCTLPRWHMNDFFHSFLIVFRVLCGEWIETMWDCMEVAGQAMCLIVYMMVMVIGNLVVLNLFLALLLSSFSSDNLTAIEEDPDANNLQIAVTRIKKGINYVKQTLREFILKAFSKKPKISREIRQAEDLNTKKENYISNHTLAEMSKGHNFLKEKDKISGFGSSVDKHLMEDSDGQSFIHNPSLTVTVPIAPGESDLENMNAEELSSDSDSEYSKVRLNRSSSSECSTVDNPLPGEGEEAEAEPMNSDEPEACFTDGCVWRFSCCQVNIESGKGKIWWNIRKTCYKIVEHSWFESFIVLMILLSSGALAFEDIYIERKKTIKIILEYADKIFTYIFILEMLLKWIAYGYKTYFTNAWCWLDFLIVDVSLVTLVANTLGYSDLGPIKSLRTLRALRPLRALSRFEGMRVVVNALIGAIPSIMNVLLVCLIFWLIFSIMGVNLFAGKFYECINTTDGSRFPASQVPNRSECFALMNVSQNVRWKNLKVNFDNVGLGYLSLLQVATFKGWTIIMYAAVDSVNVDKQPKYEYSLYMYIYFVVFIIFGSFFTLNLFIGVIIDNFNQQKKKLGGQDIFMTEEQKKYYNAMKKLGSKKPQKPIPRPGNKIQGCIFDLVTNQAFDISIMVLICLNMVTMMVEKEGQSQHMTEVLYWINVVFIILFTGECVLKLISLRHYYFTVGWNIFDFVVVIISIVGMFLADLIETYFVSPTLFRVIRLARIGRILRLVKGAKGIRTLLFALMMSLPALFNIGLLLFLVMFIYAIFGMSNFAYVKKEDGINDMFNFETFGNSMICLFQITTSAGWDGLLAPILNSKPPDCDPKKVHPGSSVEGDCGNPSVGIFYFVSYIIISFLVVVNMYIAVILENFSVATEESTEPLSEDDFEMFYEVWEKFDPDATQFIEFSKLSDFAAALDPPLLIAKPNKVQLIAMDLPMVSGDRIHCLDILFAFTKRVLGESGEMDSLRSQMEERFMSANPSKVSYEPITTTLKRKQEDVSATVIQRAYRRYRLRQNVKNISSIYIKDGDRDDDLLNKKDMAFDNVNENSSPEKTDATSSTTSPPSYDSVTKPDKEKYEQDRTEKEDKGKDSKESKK

T1 sequence (P35499 whole entry): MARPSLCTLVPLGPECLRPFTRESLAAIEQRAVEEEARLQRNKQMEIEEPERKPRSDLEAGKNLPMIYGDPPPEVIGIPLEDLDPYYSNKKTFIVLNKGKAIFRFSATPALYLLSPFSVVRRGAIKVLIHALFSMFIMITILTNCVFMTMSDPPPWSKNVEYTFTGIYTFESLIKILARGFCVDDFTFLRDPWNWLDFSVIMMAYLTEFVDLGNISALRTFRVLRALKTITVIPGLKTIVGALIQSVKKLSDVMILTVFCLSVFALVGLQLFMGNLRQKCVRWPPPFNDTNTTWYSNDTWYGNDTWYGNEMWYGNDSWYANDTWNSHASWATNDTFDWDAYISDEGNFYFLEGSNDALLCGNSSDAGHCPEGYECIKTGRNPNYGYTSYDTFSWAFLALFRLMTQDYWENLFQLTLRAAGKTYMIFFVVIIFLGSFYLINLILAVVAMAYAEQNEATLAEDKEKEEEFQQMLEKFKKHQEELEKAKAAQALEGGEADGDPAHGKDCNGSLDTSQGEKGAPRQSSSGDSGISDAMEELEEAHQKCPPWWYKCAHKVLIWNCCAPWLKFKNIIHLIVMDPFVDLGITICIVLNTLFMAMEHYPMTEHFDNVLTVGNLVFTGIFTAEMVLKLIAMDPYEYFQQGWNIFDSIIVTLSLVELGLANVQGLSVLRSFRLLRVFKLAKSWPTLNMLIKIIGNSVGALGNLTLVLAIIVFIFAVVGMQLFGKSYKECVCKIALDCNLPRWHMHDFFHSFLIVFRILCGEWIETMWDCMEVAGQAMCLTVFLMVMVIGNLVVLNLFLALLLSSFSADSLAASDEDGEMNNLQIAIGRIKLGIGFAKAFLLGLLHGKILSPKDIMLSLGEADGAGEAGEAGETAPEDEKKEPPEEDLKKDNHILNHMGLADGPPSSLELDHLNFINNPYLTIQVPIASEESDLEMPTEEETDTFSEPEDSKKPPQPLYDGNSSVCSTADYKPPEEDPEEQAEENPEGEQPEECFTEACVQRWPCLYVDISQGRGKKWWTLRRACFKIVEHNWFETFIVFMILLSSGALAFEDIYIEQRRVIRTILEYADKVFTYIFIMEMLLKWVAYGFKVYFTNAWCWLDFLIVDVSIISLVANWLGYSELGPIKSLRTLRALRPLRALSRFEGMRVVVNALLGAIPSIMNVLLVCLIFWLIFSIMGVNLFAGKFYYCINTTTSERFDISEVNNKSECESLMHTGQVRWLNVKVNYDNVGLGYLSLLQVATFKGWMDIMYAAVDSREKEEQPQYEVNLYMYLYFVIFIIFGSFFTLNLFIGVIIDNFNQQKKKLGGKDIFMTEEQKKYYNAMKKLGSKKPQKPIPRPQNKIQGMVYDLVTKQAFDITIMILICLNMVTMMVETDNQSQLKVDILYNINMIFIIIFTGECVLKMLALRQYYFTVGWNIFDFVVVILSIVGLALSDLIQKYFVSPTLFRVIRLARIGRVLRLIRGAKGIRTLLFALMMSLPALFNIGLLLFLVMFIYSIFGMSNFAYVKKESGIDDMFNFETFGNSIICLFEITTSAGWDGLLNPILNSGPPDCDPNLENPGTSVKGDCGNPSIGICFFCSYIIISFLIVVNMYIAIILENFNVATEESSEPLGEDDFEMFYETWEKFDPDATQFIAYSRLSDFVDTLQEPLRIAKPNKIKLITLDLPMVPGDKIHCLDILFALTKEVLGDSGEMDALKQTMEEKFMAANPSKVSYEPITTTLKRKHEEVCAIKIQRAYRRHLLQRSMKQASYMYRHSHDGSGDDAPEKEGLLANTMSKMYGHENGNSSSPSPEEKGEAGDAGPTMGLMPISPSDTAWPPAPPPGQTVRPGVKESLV

Row | SMILES | Nav1.4/Nav1.7 (hNav1.4 [1]) | Nav1.4/Nav1.7 (hNav1.4 [2]) | IC50 (hNav1.7) [nM]
1 | CCCC[C@@H]1NC(=O)[C@H](Cc2c[nH]c3ccccc23)NC(=O)[C@H](CCCCN)NC(=O)[C@H](CCC(N)=O)NC(=O)[C@@H](NC(=O)[C@H](Cc2ccc(O)cc2)NC(=O)[C@@H](N)Cc2cn(CCCOCCOCCOCCOCCOCCOCCOCCOCCOCCOCCN)nn2)CSSC[C@@H]2NC(=O)[C@@H]3CSSC[C@@H](C(=O)N[C@@H](CCCNC(=N)N)C(=O)N[C@@H](CCCCN)C(=O)N[C@H](C(=O)N[C@H](C(N)=O)[C@@H](C)CC)[C@@H](C)CC)NC(=O)[C@H](Cc4c[nH]c5ccccc45)NC(=O)[C@H](CC(C)C)NC(=O)[C@H](CCCCN)NC(=O)[C@H](CSSC[C@H](NC(=O)[C@H]([C@@H](C)O)NC(=O)[C@H](Cc4c[nH]c5ccccc45)NC1=O)C(=O)N[C@@H](CC(=O)O)C(=O)N[C@@H](CO)C(=O)N[C@@H](CCCCN)C(=O)N[C@@H](CCCNC(=N)N)C(=O)N[C@@H](C)C(=O)N3)NC(=O)[C@H](CCCNC(=N)N)NC(=O)[C@H](CC(C)C)NC(=O)CNC(=O)[C@H](CCC(=O)O)NC2=O [compound 247] | 1 | 2 | –
2 | CCCC[C@@H]1NC(=O)[C@H](Cc2c[nH]c3ccccc23)NC(=O)[C@H](CCCCN)NC(=O)[C@H](CCC(N)=O)NC(=O)[C@@H](NC(=O)[C@@H](N)Cc2cn(CCCOCCOCCOCCOCCOCCOCCOCCOCCOCCOCCN)nn2)CSSC[C@@H]2NC(=O)[C@@H]3CSSC[C@@H](C(=O)N[C@@H](CCCNC(=N)N)C(=O)N[C@@H](CCCCN)C(=O)N[C@H](C(=O)N[C@H](C(N)=O)[C@@H](C)CC)[C@@H](C)CC)NC(=O)[C@H](Cc4c[nH]c5ccccc45)NC(=O)[C@H](CC(C)C)NC(=O)[C@H](CCCCN)NC(=O)[C@H](CSSC[C@H](NC(=O)[C@H]([C@@H](C)O)NC(=O)[C@H](Cc4c[nH]c5ccccc45)NC1=O)C(=O)N[C@@H](CC(=O)O)C(=O)N[C@@H](CO)C(=O)N[C@@H](CCCCN)C(=O)N[C@@H](CCCNC(=N)N)C(=O)N[C@@H](C)C(=O)N3)NC(=O)[C@H](CCCNC(=N)N)NC(=O)[C@H](CC(C)C)NC(=O)CNC(=O)[C@H](CCC(=O)O)NC2=O [compound 248] | 15 | 4 and 3 | –
3 | CCCC[C@@H]1NC(=O)[C@H](Cc2c[nH]c3ccccc23)NC(=O)[C@H](CCCCN)NC(=O)[C@H](CCC(N)=O)NC(=O)[C@@H](NC(=O)[C@H](Cc2ccc(O)cc2)NC(=O)[C@H](C)N)CSSC[C@@H]2NC(=O)[C@@H]3CSSC[C@@H](C(=O)N[C@@H](CCCNC(=N)N)C(=O)N[C@@H](CCCCN)C(=O)N[C@H](C(=O)N[C@H](C(N)=O)[C@@H](C)CC)[C@@H](C)CC)NC(=O)[C@H](Cc4c[nH]c5ccccc45)NC(=O)[C@H](CC(C)C)NC(=O)[C@H](CCCCN)NC(=O)[C@H](CSSC[C@H](NC(=O)[C@H]([C@@H](C)O)NC(=O)[C@H](Cc4c[nH]c5ccccc45)NC1=O)C(=O)N[C@@H](CC(=O)O)C(=O)N[C@@H](CO)C(=O)N[C@@H](CCCCN)C(=O)N[C@@H](CCCNC(=N)N)C(=O)N[C@@H](C)C(=O)N3)NC(=O)[C@H](CCCNC(=N)N)NC(=O)[C@H](CC(C)C)NC(=O)CNC(=O)[C@H](CCC(=O)O)NC2=O [compound 357] | – | – | 0.307
4 | CCCC[C@@H]1NC(=O)[C@H](Cc2c[nH]c3ccccc23)NC(=O)[C@H](CCCCN)NC(=O)[C@H](CCC(N)=O)NC(=O)[C@@H](NC(=O)[C@H](Cc2ccc(O)cc2)NC(=O)[C@@H](N)Cc2ccccc2)CSSC[C@@H]2NC(=O)[C@@H]3CSSC[C@@H](C(=O)N[C@@H](CCCNC(=N)N)C(=O)N[C@@H](CCCCN)C(=O)N[C@H](C(=O)N[C@H](C(N)=O)[C@@H](C)CC)[C@@H](C)CC)NC(=O)[C@H](Cc4c[nH]c5ccccc45)NC(=O)[C@H](CC(C)C)NC(=O)[C@H](CCCCN)NC(=O)[C@H](CSSC[C@H](NC(=O)[C@H]([C@@H](C)O)NC(=O)[C@H](Cc4c[nH]c5ccccc45)NC1=O)C(=O)N[C@@H](CC(=O)O)C(=O)N[C@@H](CO)C(=O)N[C@@H](CCCCN)C(=O)N[C@@H](CCCNC(=N)N)C(=O)N[C@@H](C)C(=O)N3)NC(=O)[C@H](CCCNC(=N)N)NC(=O)[C@H](CC(C)C)NC(=O)CNC(=O)[C@H](CCC(=O)O)NC2=O [compound 358] | – | – | 0.493
5 | CCCC[C@@H]1NC(=O)[C@H](Cc2c[nH]c3ccccc23)NC(=O)[C@H](CCCCN)NC(=O)[C@H](CCC(N)=O)NC(=O)[C@@H](NC(=O)[C@H](Cc2ccc(O)cc2)NC(=O)CN)CSSC[C@@H]2NC(=O)[C@@H]3CSSC[C@@H](C(=O)N[C@@H](CCCNC(=N)N)C(=O)N[C@@H](CCCCN)C(=O)N[C@H](C(=O)N[C@H](C(N)=O)[C@@H](C)CC)[C@@H](C)CC)NC(=O)[C@H](Cc4c[nH]c5ccccc45)NC(=O)[C@H](CC(C)C)NC(=O)[C@H](CCCCN)NC(=O)[C@H](CSSC[C@H](NC(=O)[C@H]([C@@H](C)O)NC(=O)[C@H](Cc4c[nH]c5ccccc45)NC1=O)C(=O)N[C@@H](CC(=O)O)C(=O)N[C@@H](CO)C(=O)N[C@@H](CCCCN)C(=O)N[C@@H](CCCNC(=N)N)C(=O)N[C@@H](C)C(=O)N3)NC(=O)[C@H](CCCNC(=N)N)NC(=O)[C@H](CC(C)C)NC(=O)CNC(=O)[C@H](CCC(=O)O)NC2=O [compound 359] | – | – | 0.384
6 | CCCC[C@@H]1NC(=O)[C@H](Cc2c[nH]c3ccccc23)NC(=O)[C@H](CCCCN)NC(=O)[C@H](CCC(N)=O)NC(=O)[C@@H](NC(=O)[C@H](Cc2ccc(O)cc2)NC(=O)[C@@H](N)[C@@H](C)CC)CSSC[C@@H]2NC(=O)[C@@H]3CSSC[C@@H](C(=O)N[C@@H](CCCNC(=N)N)C(=O)N[C@@H](CCCCN)C(=O)N[C@H](C(=O)N[C@H](C(N)=O)[C@@H](C)CC)[C@@H](C)CC)NC(=O)[C@H](Cc4c[nH]c5ccccc45)NC(=O)[C@H](CC(C)C)NC(=O)[C@H](CCCCN)NC(=O)[C@H](CSSC[C@H](NC(=O)[C@H]([C@@H](C)O)NC(=O)[C@H](Cc4c[nH]c5ccccc45)NC1=O)C(=O)N[C@@H](CC(=O)O)C(=O)N[C@@H](CO)C(=O)N[C@@H](CCCCN)C(=O)N[C@@H](CCCNC(=N)N)C(=O)N[C@@H](C)C(=O)N3)NC(=O)[C@H](CCCNC(=N)N)NC(=O)[C@H](CC(C)C)NC(=O)CNC(=O)[C@H](CCC(=O)O)NC2=O [compound 360] | – | – | 0.519
7 | CCCC[C@@H]1NC(=O)[C@H](Cc2c[nH]c3ccccc23)NC(=O)[C@H](CCCCN)NC(=O)[C@H](CCC(N)=O)NC(=O)[C@@H](NC(=O)[C@H](Cc2ccc(O)cc2)NC(=O)[C@@H]2CCCN2)CSSC[C@@H]2NC(=O)[C@@H]3CSSC[C@@H](C(=O)N[C@@H](CCCNC(=N)N)C(=O)N[C@@H](CCCCN)C(=O)N[C@H](C(=O)N[C@H](C(N)=O)[C@@H](C)CC)[C@@H](C)CC)NC(=O)[C@H](Cc4c[nH]c5ccccc45)NC(=O)[C@H](CC(C)C)NC(=O)[C@H](CCCCN)NC(=O)[C@H](CSSC[C@H](NC(=O)[C@H]([C@@H](C)O)NC(=O)[C@H](Cc4c[nH]c5ccccc45)NC1=O)C(=O)N[C@@H](CC(=O)O)C(=O)N[C@@H](CO)C(=O)N[C@@H](CCCCN)C(=O)N[C@@H](CCCNC(=N)N)C(=O)N[C@@H](C)C(=O)N3)NC(=O)[C@H](CCCNC(=N)N)NC(=O)[C@H](CC(C)C)NC(=O)CNC(=O)[C@H](CCC(=O)O)NC2=O [compound 362] | – | – | 0.372
8 | CCCC[C@@H]1NC(=O)[C@H](Cc2c[nH]c3ccccc23)NC(=O)[C@H](CCCCN)NC(=O)[C@H](CCC(N)=O)NC(=O)[C@@H](NC(=O)[C@H](Cc2ccc(O)cc2)NC(=O)[C@@H](N)C(C)C)CSSC[C@@H]2NC(=O)[C@@H]3CSSC[C@@H](C(=O)N[C@@H](CCCNC(=N)N)C(=O)N[C@@H](CCCCN)C(=O)N[C@H](C(=O)N[C@H](C(N)=O)[C@@H](C)CC)[C@@H](C)CC)NC(=O)[C@H](Cc4c[nH]c5ccccc45)NC(=O)[C@H](CC(C)C)NC(=O)[C@H](CCCCN)NC(=O)[C@H](CSSC[C@H](NC(=O)[C@H]([C@@H](C)O)NC(=O)[C@H](Cc4c[nH]c5ccccc45)NC1=O)C(=O)N[C@@H](CC(=O)O)C(=O)N[C@@H](CO)C(=O)N[C@@H](CCCCN)C(=O)N[C@@H](CCCNC(=N)N)C(=O)N[C@@H](C)C(=O)N3)NC(=O)[C@H](CCCNC(=N)N)NC(=O)[C@H](CC(C)C)NC(=O)CNC(=O)[C@H](CCC(=O)O)NC2=O [compound 363] | – | – | 0.551
9 | CCCC[C@@H]1NC(=O)[C@H](Cc2c[nH]c3ccccc23)NC(=O)[C@H](CCCCN)NC(=O)[C@H](CCC(N)=O)NC(=O)[C@@H](NC(=O)[C@H](Cc2ccc(O)cc2)NC(=O)[C@@H](N)Cc2ccc(O)cc2)CSSC[C@@H]2NC(=O)[C@@H]3CSSC[C@@H](C(=O)N[C@@H](CCCNC(=N)N)C(=O)N[C@@H](CCCCN)C(=O)N[C@H](C(=O)N[C@H](C(N)=O)[C@@H](C)CC)[C@@H](C)CC)NC(=O)[C@H](Cc4c[nH]c5ccccc45)NC(=O)[C@H](CC(C)C)NC(=O)[C@H](CCCCN)NC(=O)[C@H](CSSC[C@H](NC(=O)[C@H]([C@@H](C)O)NC(=O)[C@H](Cc4c[nH]c5ccccc45)NC1=O)C(=O)N[C@@H](CC(=O)O)C(=O)N[C@@H](CO)C(=O)N[C@@H](CCCCN)C(=O)N[C@@H](CCCNC(=N)N)C(=O)N[C@@H](C)C(=O)N3)NC(=O)[C@H](CCCNC(=N)N)NC(=O)[C@H](CC(C)C)NC(=O)CNC(=O)[C@H](CCC(=O)O)NC2=O [compound 365] | – | – | 0.372
10 | C=CC[C@H](N)C(=O)N[C@@H](Cc1ccc(O)cc1)C(=O)N[C@H]1CSSC[C@@H]2NC(=O)[C@@H]3CSSC[C@@H](C(=O)N[C@@H](CCCNC(=N)N)C(=O)N[C@@H](CCCCN)C(=O)N[C@H](C(=O)N[C@H](C(N)=O)[C@@H](C)CC)[C@@H](C)CC)NC(=O)[C@H](Cc4c[nH]c5ccccc45)NC(=O)[C@H](CC(C)C)NC(=O)[C@H](CCCCN)NC(=O)[C@H](CSSC[C@H](NC(=O)[C@H]([C@@H](C)O)NC(=O)[C@H](Cc4c[nH]c5ccccc45)NC(=O)[C@H](CCCC)NC(=O)[C@H](Cc4c[nH]c5ccccc45)NC(=O)[C@H](CCCCN)NC(=O)[C@H](CCC(N)=O)NC1=O)C(=O)N[C@@H](CC(=O)O)C(=O)N[C@@H](CO)C(=O)N[C@@H](CCCCN)C(=O)N[C@@H](CCCNC(=N)N)C(=O)N[C@@H](C)C(=O)N3)NC(=O)[C@H](CCCNC(=N)N)NC(=O)[C@H](CC(C)C)NC(=O)CNC(=O)[C@H](CCC(=O)O)NC2=O [compound 367] | – | – | 0.488
